# Earlier results as cited in patent US20110245279A1, “PREDICTIVE MARKER FOR EGFR INHIBITOR TREATMENT” (priority 2007, published 2011).
# Where two headings read alike, the source gives them in different places.
# Legend:
# NSCLC [1] = conditions: single agent; NSCLC patients for whom standard therapy for advanced disease has failed
# [2] = patients with cancer receiving the 150 mg/day dose
# NSCLC [3] = system: NSCLC
# [4] = randomized phase III trial, second line therapy of NSCLC
compound,measurement,setting,value
"C#Cc1cccc(Nc2ncnc3cc(OCCOC)c(OCCOC)cc23)c1 [Tarceva, erlotinib]",survival,NSCLC [1],significantly prolongs and improves the survival
same,drug levels in plasma,[2],> 500 ng/mL
Nc1nc2[nH]cc(CCc3ccc(C(=O)N[C@@H](CCC(=O)O)C(=O)O)cc3)c2c(=O)[nH]1 [pemetrexed],efficacy compared with docetaxel,NSCLC [3]; [4],clinically equivalent efficacy
same,side effects compared with docetaxel,NSCLC [3]; [4],significantly fewer side effects
CC(=O)O[C@@]12CO[C@@H]1C[C@H](O)[C@@]1(C)C(=O)[C@H](O)C3=C(C)[C@@H](OC(=O)[C@H](O)[C@@H](NC(=O)OC(C)(C)C)c4ccccc4)C[C@@](O)([C@@H](OC(=O)c4ccccc4)[C@H]21)C3(C)C [docetaxel],survival,"NSCLC [3]; second line vs best supportive care, after cisplatin-based first-line regimens had failed",improved survival
CCOC(=O)c1ccc(C#Cc2ccc3c(c2)C(C)(C)CCS3)nc1 [tazarotene],expression of RARRES1 gene,RARRES1 gene,up regulated
